Here are results for one molecule from US8114425B2, “Process for the production of wood-based materials” (LANXESS Deutschland GmbH, priority 2008, dated 2012).

Data set [1] deals with Reticulitermes santonensis. As to the kind of experiment: Termite resistance compulsory test analogous to EN 117 on OSB boards. As to conditions: OSB board with 0.00153% thiacloprid, PF glue outer layers, pressed at 190-200° C.; inspection of the surfaces after 8 weeks. The data set is classed as in vivo. The text has this:
Pine chips (strands for the production of OSB) whose fine fraction of <6 mm was removed by means of screening were wetted with phenol-formaldehyde glue (PF, manufacturer Georgia Pacific; type GP 155 C 42; pH about 11-13) for the outer layers and with polymethylene diisocyanate glue (PMDI; manufacturer Bayer; type Desmodur 1520 A 20) for the middle layer. The outer and middle layer chips treated in each case were then wetted with an aqueous solution containing 0.5% of thiacloprid and finally in each case with a wax emulsion (Sasolwax Hydrowax 730). The application was effected in each case using an atomizer (spinning disc system) in a chip mixer. The amount of alkaline binder was 4.5% of PF (or 2.5% of PMDI) solid resin mass fraction in the finished OSB board. This corresponds to about 10% mass fraction, based on the chips used, for the PF glue. The aqueous solution containing thiacloprid was used with 2000 ml/m^3 of finished OSB board. At a density of 650 kg/m^3, this corresponds to 0.00153% of thiacloprid, based on the finished OSB board. The proportion of wax was 0.8% by mass, based on the OSB board. The OSB wood composites produced were produced from 60% of PF glue-coated chips as outer layers and 40% of PMDI glue-coated chips as the middle layer in a press at 500 N/cm^2 and with press plate temperatures of 190-200° C. […]

A short description of data set [2]: Investigation of the thermal lability of thiacloprid in NaOH solution. The format is physicochemical. The settings on record: NaOH solution pH 13.7. Here is the method: 5 g of NaOH were dissolved in 250 ml of distilled water (pH 13.7) and 100 mg of active substance were added. Stirring was then effected for 15 min at different temperatures. The mixture was extracted twice with methylene chloride, neutralized and evaporated down. The residue was weighed and was analysed by NMR, GC, GC-MS or HPLC.

For `N#C/N=C1\SCCN1Cc1ccc(Cl)nc1` [thiacloprid], in data set [1], the “traces of feeding on test specimen surfaces” value is “No measurable traces of feeding”. Further, the “stability in NaOH solution” value in data set [2] (35° C., 15 min stirring) is reported as “stable”. Further, the “degradation in NaOH solution” value in data set [2] (75° C., 15 min stirring) was determined as 100%. Besides, the “degradation in NaOH solution (in words)” value in data set [2] (75° C., after only 15 min) is “completely degraded”.
